According to patent US11400081B2, “Compounds” (The University of Sheffield, priority 2017, dated 2022):

Molecular target: T1, AM2 receptor (CALCRL+RAMP3) (Homo sapiens, UniProt O60896+Q16602)
T1 construct: host or cells: 1321N1
Experiment: AM2 receptor inhibition, LANCE TR-FRET cAMP agonist-antagonist competition assay
Type: cell-based
Settings: inhibition of AM induced cAMP activation; 1321N1 cells transfected with CALCRL+RAMP3; read-out: AM2 pIC50 (converted)
Procedure: Compounds were assessed for their ability to inhibit ligand-induced elevations of cAMP, using the Perkin Elmer LANCE cAMP assay using commercially-available cells expressing a specific receptor of interest using the following general procedure:
Compounds were prepared in dimethyl sulfoxide (DMSO—99.9% pure) (Sigma Aldrich, Cat #: D4540) added to powder stocks to produce a 20 mM solution (100% DMSO) that was sonicated at 37° C. for 10 minutes to fully dissolve the compounds. The 20 mM stocks were diluted further in DMSO to produce a 2 mM solution that was sonicated at 37° C. for 10 minutes. 2 mM stocks were dissolved in assay/stimulation buffer to produce a 400 μM solution that was sonicated at 37° C. for 10 minutes for all cAMP assays. All stocks were stored at −20° C. Then serial dilution (Dilution factor 10) was performed to achieve the desire experimental concentrations.
Competition assays were performed according to the manufactures instructions using LANCE® TR-FRET cAMP assay kit (Perkin Elmer, Cat #: AD0264). Serial dilutions (3 μl/well) of the molecules were plated in a 384-well OptiPlate (Perkin Elmer, Cat #: 6007299) in duplicates. Appropriate controls (100% stimulation: Forskolin and 0% stimulation: Vehicle control) (6 μl/well) were included in each plate for data normalization. Following the compound addition, 6 μl of G-protein coupled receptor overexpressing cells/Alexa Fluor antibody solution (1:100 dilution) was added in each well at a desired density of 2500 cells/well. The overexpressing cell lines were purchased from DiscoveRx, Birmingham, UK. After spinning the plate at 1000 rpm for 1 minute and vortexing briefly, the cells were pre-incubated with the compounds for 30 minutes at room temperature (covered). Then 3 μl of the equivalent peptide ligand (EC50 dose) was added to all the wells except vehicle and forskolin controls. The plate were then spun down at 1000 rpm for 1 minute and once finished they were vortexed briefly and covered. Cells were stimulated in the presence of the ligands for 15 minutes at room temperature. After stimulation 12 μl of detection mix (Europium-Chelate streptavidin/biotinylated cAMP tracer solution) was added to all wells and incubated for 60 minutes at room temperature. The plate was then read on the Enspire multimode Plate reader (Perkin Elmer), at; 320/340 nm excitation and 615/665 nm emission was recorded.
• 28 mL Hank's Balanced salt solution (+MgCl2, +CaCl2)—(Thermo Fisher Cat #:14170112) • 150 μl HEPES (1M)—(Thermo Fisher Cat #:15630080) • 400 μl Stabilizer (DTPA) Purified BSA (7.5%)—(Perkin Elmer, Cat #: CR84-100) • 60 μl IBMX (250 mM)—(Sigma Aldrich, Cat #: 15879) Specific cAMP/Agonist-Antagonist Competition Assays
The ability of a compound to inhibit the AM induced cAMP activation in AM2 receptor-expressing cells (1321N1 cells transfected with CALCRL+RAMP3, sourced from DiscoverX catalogue number 95-0169C6) was assessed using the protocol above.

T1 sequence (Q16602 23-461): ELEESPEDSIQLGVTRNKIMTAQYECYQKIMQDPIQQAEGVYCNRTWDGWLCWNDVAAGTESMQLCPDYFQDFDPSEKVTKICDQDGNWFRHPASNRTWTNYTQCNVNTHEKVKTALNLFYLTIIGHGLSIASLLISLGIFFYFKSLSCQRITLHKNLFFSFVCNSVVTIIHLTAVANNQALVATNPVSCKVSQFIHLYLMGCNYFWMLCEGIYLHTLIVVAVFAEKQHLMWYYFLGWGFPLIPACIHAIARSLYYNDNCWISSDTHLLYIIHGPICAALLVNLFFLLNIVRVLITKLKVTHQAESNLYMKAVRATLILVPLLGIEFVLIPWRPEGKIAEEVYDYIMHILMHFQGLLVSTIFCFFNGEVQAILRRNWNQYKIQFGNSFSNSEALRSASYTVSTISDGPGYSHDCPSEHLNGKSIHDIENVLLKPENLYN
T1 sequence (O60896 24-148): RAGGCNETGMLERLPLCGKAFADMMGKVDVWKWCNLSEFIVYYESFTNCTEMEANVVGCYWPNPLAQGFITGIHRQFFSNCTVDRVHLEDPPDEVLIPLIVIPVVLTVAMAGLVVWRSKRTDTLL

Row | SMILES | IC50
1 | CNCc1ccccc1CN(C(=O)C(C)(C)C)[C@H](C)C(=O)Nc1ccc2c(c1)CC1(C2)C(=O)Nc2ncccc21 (stereo partly drawn) [Example 35, N-(2-((Methylamino)methyl)benzyl)-N-((2R)-1-oxo-1-((2′-oxo-1,1′,2′,3-tetrahydrospiro[indene-2,3′-pyrrolo[2,3-b]pyridin]-5-yl)amino)propan-2-yl)pivalamide] | 18.2 nM
2 | CNCc1c(F)cccc1CN(CC(=O)Nc1ccc2c(c1)CC1(C2)C(=O)Nc2ncccc21)C(=O)C(C)(C)C (stereo not shown) [Example 36, N-(3-fluoro-2-((methylamino)methyl)benzyl)-N-(2-oxo-2-((2′-oxo-1,1′,2′,3-tetrahydrospiro[indene-2,3′-pyrrolo[2,3-b]pyridin]-5-yl)amino)ethyl)pivalamide] | 93.3 nM
3 | CNCc1cc(F)c(F)cc1CN(CC(=O)Nc1ccc2c(c1)CC1(C2)C(=O)Nc2ncccc21)C(=O)C(C)(C)C (stereo not shown) [Example 37, N-(4,5-difluoro-2-((methylamino)methyl)benzyl)-N-(2-oxo-2-((2′-oxo-1,1′,2′,3-tetrahydrospiro[indene-2,3′-pyrrolo[2,3-b]pyridin]-5-yl)amino)ethyl)pivalamide] | 145 nM
4 | Cc1cc2c(cc1NC(=O)CN(Cc1ccccc1CN)C(=O)C(C)(C)C)CC1(C2)C(=O)Nc2ncccc21 (stereo not shown) [Example 39, N-(2-(Aminomethyl)benzyl)-N-(2-((5-methyl-2′-oxo-1,1′,2,3-tetrahydrospiro[indene-2,3′-pyrrolo[2,3-b]pyridin]-6-yl)amino)-2-oxoethyl)pivalamide] | 15.5 nM
5 | CNCc1ccccc1CN(CC(=O)Nc1cc2c(cc1C)CC1(C2)C(=O)Nc2ncccc21)C(=O)C(C)(C)C (stereo not shown) [Example 40, N-(2-((5-Methyl-2′-oxo-1,1′,2′,3-tetrahydrospiro[indene-2,3′-pyrrolo[2,3-b]pyridin]-6-yl)amino)-2-oxoethyl)-N-(2-((methylamino)methyl)benzyl)pivalamide] | 7.41 nM
6 | CC(C)(C)C(=O)N(CC(=O)Nc1ccc2c(c1)CC1(C2)C(=O)Nc2ncccc21)Cc1ccccc1C(=N)NO (stereo not shown) [Example 41, N-(2-(N-Hydroxycarbamimidoyl)benzyl)-N-(2-oxo-2-((2′-oxo-1,1′,2′,3-tetrahydrospiro[indene-2,3′-pyrrolo[2,3-b]pyridin]-5-yl)amino)ethyl)pivalamide] | 100 nM
7 | CC(=N)NCc1ccccc1CN(CC(=O)Nc1ccc2c(c1)CC1(C2)C(=O)Nc2ncccc21)C(=O)C(C)(C)C (stereo not shown) [Example 42, N-(2-(Acetimidamidomethyl)benzyl)-N-(2-oxo-2-((2′-oxo-1,1′,2′,3-tetrahydrospiro[indene-2,3′-pyrrolo[2,3-b]pyridin]-5-yl)amino)ethyl)pivalamide] | 135 nM
8 | CC(C)(C)OC(=O)N(CC(=O)Nc1ccc2c(c1)CC1(C2)C(=O)Nc2ncccc21)Cc1ccccc1CN1CCC1 (stereo not shown) [Example 44, tert-Butyl 2-(azetidin-1-ylmethyl)benzyl(2-oxo-2-((2′-oxo-1,1′,2′,3-tetrahydrospiro[indene-2,3′-pyrrolo[2,3-b]pyridin]-5-yl)amino)ethyl)carbamate] | 74.1 nM
9 | O=C(CN(Cc1ccccc1CN1CCC1)C(=O)CC(F)(F)F)Nc1ccc2c(c1)CC1(C2)C(=O)Nc2ncccc21 (stereo not shown) [Example 45, N-(2-(Azetidin-1-ylmethyl)benzyl)-3,3,3-trifluoro-N-(2-oxo-2-((2′-oxo-1,1′,2,3-tetrahydrospiro[indene-2,3′-pyrrolo[2,3-b]pyridin]-5-yl)amino)ethyl)propanamide] | 245 nM
10 | O=C(CN(Cc1ccccc1CN1CCC1)C(=O)C1CCCC1)Nc1ccc2c(c1)CC1(C2)C(=O)Nc2ncccc21 (stereo not shown) [Example 46, N-(2-(Azetidin-1-ylmethyl)benzyl)-N-(2-oxo-2-((2′-oxo-1,1′,2′,3-tetrahydrospiro[indene-2,3′-pyrrolo[2,3-b]pyridin]-5-yl)amino)ethyl)cyclopentanecarboxamide] | 2.82 nM
11 | CC1(C(=O)N(CC(=O)Nc2ccc3c(c2)CC2(C3)C(=O)Nc3ncccc32)Cc2ccccc2CN2CCC2)CC1 (stereo not shown) [Example 47, N-(2-(Azetidin-1-ylmethyl)benzyl)-1-methyl-N-(2-oxo-2-((2′-oxo-1,1′,2′,3-tetrahydrospiro[indene-2,3′-pyrrolo[2,3-b]pyridin]-5-yl)amino)ethyl)-cyclopropanecarboxamide] | 15.5 nM
12 | O=C(CN(Cc1ccccc1CN1CCC1)C(=O)C1CC1)Nc1ccc2c(c1)CC1(C2)C(=O)Nc2ncccc21 (stereo not shown) [Example 49, N-(2-(Azetidin-1-ylmethyl)benzyl)-N-(2-oxo-2-((2′-oxo-1,1′,2′,3-tetrahydrospiro[indene-2,3′-pyrrolo[2,3-b]pyridin]-5-yl)amino)ethyl)cyclopropanecarboxamide] | 10.2 nM
13 | COC(=O)N(CC(=O)Nc1ccc2c(c1)CC1(C2)C(=O)Nc2ncccc21)Cc1ccccc1CN1CCC1 (stereo not shown) [Example 50, Methyl 2-(azetidin-1-ylmethyl)benzyl(2-oxo-2-((2′-oxo-1,1′,2′,3-tetrahydrospiro[indene-2,3′-pyrrolo[2,3-b]pyridin]-5-yl)amino)ethyl)carbamate] | 74.1 nM
14 | O=C(CN(Cc1ccccc1CN1CCC1)C(=O)c1ccccc1)Nc1ccc2c(c1)CC1(C2)C(=O)Nc2ncccc21 (stereo not shown) [Example 51, N-(2-(Azetidin-1-ylmethyl)benzyl)-N-(2-oxo-2-((2′-oxo-1,1′,2′,3-tetrahydrospiro[indene-2,3′-pyrrolo[2,3-b]pyridin]-5-yl)amino)ethyl)benzamide] | 85.1 nM
15 | O=C(CN(Cc1ccccc1CN1CCC1)C(=O)c1ccccn1)Nc1ccc2c(c1)CC1(C2)C(=O)Nc2ncccc21 (stereo not shown) [Example 52, N-(2-(Azetidin-1-ylmethyl)benzyl)-N-(2-oxo-2-((2′-oxo-1,1′,2,3-tetrahydrospiro[indene-2,3′-pyrrolo[2,3-b]pyridin]-5-yl)amino)ethyl)picolinamide] | 46.8 nM
16 | CNCc1ccc(F)cc1CN(CC(=O)Nc1ccc2c(c1)CC1(C2)C(=O)Nc2ncccc21)C(=O)C(C)(C)C (stereo not shown) [Example 54, N-(5-Fluoro-2-((methylamino)methyl)benzyl)-N-(2-oxo-2-((2′-oxo-1,1′,2′,3-tetrahydrospiro[indene-2,3′-pyrrolo[2,3-b]pyridin]-5-yl)amino)ethyl)pivalamide] | 3.55 nM
17 | CNCc1cc(F)ccc1CN(CC(=O)Nc1ccc2c(c1)CC1(C2)C(=O)Nc2ncccc21)C(=O)C(C)(C)C (stereo not shown) [Example 55, N-(4-Fluoro-2-((methylamino)methyl)benzyl)-N-(2-oxo-2-((2′-oxo-1,1′,2′,3-tetrahydrospiro[indene-2,3′-pyrrolo[2,3-b]pyridin]-5-yl)amino)ethyl)pivalamide] | 9.77 nM
18 | CNCc1cccc(F)c1CN(CC(=O)Nc1ccc2c(c1)CC1(C2)C(=O)Nc2ncccc21)C(=O)C(C)(C)C (stereo not shown) [Example 56, N-(2-Fluoro-6-((methylamino)methyl)benzyl)-N-(2-oxo-2-((2′-oxo-1,1′,2′,3-tetrahydrospiro[indene-2,3′-pyrrolo[2,3-b]pyridin]-5-yl)amino)ethyl)pivalamide] | 151 nM
19 | CNCc1ccccc1CN(CC(=O)Nc1ccc2c(c1)CC1(C2)C(=O)Nc2ncccc21)C(=O)COC (stereo not shown) [Example 57, 2-Methoxy-N-(2-((methylamino)methyl)benzyl)-N-(2-oxo-2-((2′-oxo-1,1′,2′,3-tetrahydrospiro[indene-2,3′-pyrrolo[2,3-b]pyridin]-5-yl)amino)ethyl)acetamide] | 269 nM
